The text below walks through data of patent publication US20230124862A1, “BISMUTH THIOL COMPOUNDS AND COMPOSITIONS AND METHODS OF TREATING MICROBIAL CO-INFECTIONS” (Microbion Corporation, priority 2020, published 2023).

Data set [1] relates to Achromobacter spp. biofilm. In words: Activity against biofilms. To be noted: tested up to 250 μg/mL. It counts as cell-based. The text has this: A dose response is also apparently associated with both compounds (FIG. 21).
The subject of a further data set is M. avium. In words: MIC testing of CF isolates. The format is cell-based. To be noted: Mycobacterium avium.
Data set [2] concerns Anaerobes (Bacteroides fragilis, Clostridium difficile). In words: Agar dilution MIC (Example 11). It counts as cell-based. The procedure: The susceptibility of anaerobic bacteria was determined by agar dilution using Brucella Agar (BD/BBL; Lot No. 5237692) supplemented with 5 μg/mL hemin (Sigma, St. Louis, Mo.; Lot No. 108K1088), 1 μg/mL Vitamin K1 and 5% (v/v) laked sheep blood (Cleveland Scientific, Bath, Ohio; Lot No. 322799).
Agar Dilution MIC Testing (Anaerobic Bacteria and Gonococci): MIC values for anaerobic bacteria were determined using a reference agar dilution method as described by CLSI (6). Organisms were grown at 35° C. in the Bactron II Anaerobic Chamber (Shel Lab, Cornelius, Oreg.) for approximately 48 hr prior to the assay. Drug dilutions and drug-supplemented agar plates were prepared manually per CLSI (6). The plates were allowed to stand at room temperature for 1 hr to allow the agar surface to dry and pre-reduced for approximately 1 hr in the anaerobe chamber prior to inoculation. Each isolate was suspended to the equivalent of a 0.5 McFarland standard in Brucella broth using a turbidity meter (Dade Behring MicroScan, West Sacramento, Calif.). Each bacterial cell suspension was then diluted 1:10 in Brucella broth and transferred to wells in a stainless steel replicator block which was used to inoculate the test plates. The prongs on the replicator deliver approximately 1-2 μl of inoculum to an agar surface. The resulting inoculum spots contained approximately 1×10^5 CFU/spot. After the inoculum dried, the inoculated drug-supplemented agar plates and no drug growth control plates were incubated at 35° C. for 42-48 hr in the anaerobe chamber. The MIC was read per CLSI guidelines (6).

A further data set can be described thus: in vivo. The settings on record: dog; for half-life: two-dose inhalation. The arrangement: species or system beagle dogs. The procedure: Once adequately conditioned to the restraint device and face-masks, the animals are individually exposed to the test article aerosols. Animals receive a single face-mask inhalation exposure in a ramp study design to test article aerosols for up to 60 min. Animal observations during and post exposure determine the tolerance of inhaled BisEDT aerosols.
Blood Collections and Bioanalytical Analysis: Blood are collected for pharmacokinetic (PK) analysis prior to exposure, then at 4 hr (±5 min) post exposure, and again on Day 1, Day 2, Day 7 (pre- and 4 hr (±5 min)-post exposure), Day 8, Day 9, Day 10, Day 11, Day 12, Day 13, and Day 14. A total of 0.25 mL is collected at each timepoint. No PK blood is collected from the vehicle control (Group 1) animals; only animals exposed to BisEDT have blood collected for PK analysis. Collected samples are flash frozen without processing for shipment to Medpace for bioanalytical analysis. Additional blood is collected from all animals in all groups for hematology (1 mL) and clinical chemistry (1 mL) at baseline, Day 7 (pre-exposure), and again at euthanasia. Blood (2-2 mL) is collected from all animals at necropsy for coagulation analysis (d-Dimer, fibrinogen, PT, and PTT).
Blood for pharmacokinetic analysis (0.25 mL) is collected into tubes containing K3EDTA as an anticoagulant.
The left lobe of the lung is used for histopathology and will be fixed in 10% NBF. […] Liver, spleen, kidney, brain, heart, and respiratory tract are collected and fixed for potential, future analysis.
A two-dose inhalation PK study in dogs was performed covering four doses from 50 μg/kg to 450 μg/kg lung deposited dose. […] The systemic half-life is approximately 4 days, and the lung tissue half-life is approximately 7 days.

Data set [3] is classed as in vivo, patients. The settings on record: end of treatment (Week 2-3), test of cure (Week 4-5), end of study (Week 8-9).
Another data set concerns S. aureus ATCC 29213. The settings on record: CLSI established QC range; cited from earlier work.
Data set [4] has as its system MucilAir fully differentiated human airway epithelium.
Data set [5] concerns Burkholderia cepacia complex. In words: Checkerboard FIC/FICI assay. It counts as cell-based, Burkholderia spp. The settings on record: during FIC testing.
[6] abbreviates: Animals 4001 and 4004, Day 14 (7 days after last dose).

Read-outs that look alike come from different tables or passages of the source.

As for `CC(S)C(C)S.[Bi]` (stereo not shown) [BisBDT, bismuth-2,3-butanedithiol], the “reduction in viable biofilm cells” value in data set [1] came out at 5 log. The MIC is over 16 µg/mL against M. avium (strain AMT G193-13); 1 µg/mL in the data set on M. avium (strain MAC101); 1 µg/mL in data set [2] (Bacteroides fragilis, ATCC25285, B. fragilis MMX 123 (ATCC 25285), QC, read-out: MIC); 1 to 4 µg/mL in data set [2] (Bacteroides fragilis, agar dilution, read-out: MIC values); 2 µg/mL in data set [2] (C. difficile MMX 5680 (NCTC 13336), ribotype 027, CC^1 MET^R, read-out: MIC); 2 µg/mL in data set [2] (C. difficile MMX 8272, ribotype 255, CC^1, read-out: MIC). In addition, the MIC was found to be 2 µg/mL in data set [2] (C. difficile MMX 8279, ribotype 005, CC^R, read-out: MIC) and 2 µg/mL in data set [2] (C. difficile MMX 8281, ribotype 010, CC^R, read-out: MIC).
Regarding `C1C[S][Bi]([S]CC[S][Bi]2[S]CC[S]2)[S]1` [BisEDT, Bismuth-1,2-ethanedithiol], the half-life is about 168 h in “in vivo” (beagle, in vivo, inhaled or intranasal, read-out: lung tissue half-life (converted)) and about 96 h in the data set “in vivo” (beagle, in vivo, inhaled or intranasal, read-out: systemic half-life (converted)). Moreover, the Tmax in the data set “in vivo” (beagle, in vivo, inhaled or intranasal, whole blood, after both doses) was about 24 h. Further, the average blood level result in “in vivo” (setting [6]) is “less than 20 ng/mL”. Besides, the lung tissue level result in the data set “in vivo” (setting [6]) is “over 7,000 ng/g”. Moreover, in data set [3], the “proportion of subjects with >50% reduction in wound surface area from baseline vs placebo” value is recorded as “A larger proportion”. For the same compound, the “QC range of MIC” value in the data set on S. aureus ATCC 29213 is given as “(0.12-1) μg/mL”. Further, the LDH release entry in data set [4] (BisEDT in solution 0.001-30 μM, 1, 8, 24, 48 h) was “not altered”; in data set [4] (solid, 1 μg/cm^2, 1 hour), “No significant effect”; in data set [4] (solid, 0.033 and 0.33 μg/cm^2, all time points) it was “No significant effect”. For the same compound, in data set [4] (solid, 1 μg/cm^2, 8, 24 and 48 h), the “LDH release (cytotoxicity)” value is “time- and dose-dependent cytotoxicity”.
With `C[C@@H](O)[C@H]1C(=O)N2C(C(=O)O)=C(S[C@@H]3CN[C@H](C(=O)N(C)C)C3)[C@H](C)[C@H]12` [MEM], the MIC is 4 µg/mL in data set [5] (B. cenocepacia isolate 0548); 9 µg/mL in data set [5] (B. cenocepacia isolate 0813); 4 µg/mL in data set [5] (B. cepacia isolate 0546); 4 µg/mL in data set [5] (B. cepacia isolate 1793); 4 µg/mL in data set [5] (B. multivorans isolate 1795).
